Results taken from the CATMoS acute toxicity set (Mansouri et al. 2021).

Experiment: GHS categories as the set defines them, by LD50: 1 up to 5, 2 up to 50, 3 up to 300, 4 up to 2000, 5 above 2000 mg/kg
Conditions: rat; in vivo; po

Row | Compound | GHS category
1 | CN(C)CCSc1nc2ccccc2cc1-c1ccccc1 | 4
2 | CNC(=O)C(=NNc1ccc(C)cc1)C(C)=O | 5
3 | CN(C)CCOc1nn(-c2cccc(C(F)(F)F)c2)c2ncccc12 | 4
4 | NCCCN(CCO)CCO | 5
5 | CCCOC(=O)[C@H](C)O | 5
6 | CC1CC(OC(=O)C(C)Oc2ccc(F)cc2)CC(C)(C)C1 (configuration not stated) | 5
7 | NCC1CCC(N)C(OC2C(N)CC(N)C(OC3OC(CO)C(O)C(N)C3O)C2O)O1 (configuration not stated) | 5
8 | C[C@]12CC[C@H](O)CC1=CC[C@@H]1[C@@H]2CC[C@]2(C)C(=O)CC[C@@H]12 | 5
9 | C[C@@H]1O[C@@H](O[C@@H]2[C@@H](O)[C@H](OCCc3ccc(O)c(O)c3)O[C@H](CO)[C@H]2OC(=O)C=Cc2ccc(O)c(O)c2)[C@H](O)[C@H](O)[C@H]1O | 5
10 | COc1ccccc1C=NNC(N)=S | 5
11 | CCC(C)c1cc(S(=O)(=O)O)cc(-n2nc3ccccc3n2)c1O (configuration not stated) | 5
12 | CC(C)CCCCCCCCCCOCCCN | 4
13 | CC(C)=CCN(CC=C(C)C)CCC(C#N)(CC=C(C)C)c1cccc2ccccc12 (configuration not stated) | 4
14 | CCCCC(CC)COP(=O)(Oc1ccccc1)Oc1ccccc1 (configuration not stated) | 5
15 | COc1ccccc1N1CCN(/C(N)=N/c2cc(Cl)cc(Cl)c2)CC1 | 4
16 | COC(=O)C1=C(C)NC(C)=C(C(=O)O)C1c1cc([N+](=O)[O-])ccc1F (configuration not stated) | 5
17 | CCC=CCC(C)OC(=O)c1ccccc1O (configuration not stated) | 5
18 | COc1cc(CC2NCCc3cc(O)c(O)cc32)cc(OC)c1OC (configuration not stated) | 5
19 | Cc1cc(C(=O)NCCc2ccc(S(=O)(=O)NC(=O)NN3CCCCCC3)cc2)no1 | 5
20 | Nc1ncc(Br)cc1O | 5
21 | Cc1ccc(S(=O)(=O)NC(=O)Nc2cccc(OS(=O)(=O)c3ccc(C)cc3)c2)cc1 | 5
22 | CNC(=O)Oc1cccc2c1OC1(CCCCC1)O2 | 3
23 | O=C1CCCCCN1C(=O)Nc1ccc(Cc2ccc(NC(=O)N3CCCCCC3=O)cc2)cc1 | 5
24 | COC(=O)c1ccc2c(c1)NC(=O)C2 | 5

Row | Compound | GHS category
25 | CCCCCCCCCCOCCN1CCCC1=O | 5
26 | CC(C)COP(O)(=S)OCC(C)C | 5
27 | COc1ccc2c(c1)CCN(c1ccccc1)C2c1cccc(C(F)(F)F)c1 (configuration not stated) | 4
28 | CC(C)(C)c1cc(S)c(O)c(C(C)(C)C)c1 | 5
29 | O=C(Cl)CCCCCl | 4
30 | N[C@@H](CSSC[C@H](N)C(=O)O)C(=O)O | 5
31 | CSC | 4
32 | O=c1c2cc(Cl)ccc2[nH]c2cc3c(=O)c4cc(Cl)ccc4[nH]c3cc12 | 5
33 | CC(C#N)c1cccc(C(=O)c2ccccc2)c1 (configuration not stated) | 4
34 | CC=CC(=O)OC/C=C(\C)CCC=C(C)C | 5
35 | CCCCCCOCC(OC)OC | 5
36 | NC(=O)OCC(COC(N)=O)c1ccccc1 | 5
37 | C[C@@]12CC[C@@H]3[C@H](CC=C4C[C@H](OS(=O)(=O)O)CC[C@]43C)[C@H]1CCC2=O (racemic) | 5
38 | CN[C@H](CC(C)C)C(=O)N[C@H]1C(=O)N[C@@H](CC(N)=O)C(=O)N[C@H]2C(=O)N[C@H]3C(=O)N[C@H](C(=O)N[C@@H](C(=O)O)c4cc(O)cc(O)c4-c4cc3ccc4O)[C@H](O)c3ccc(c(Cl)c3)Oc3cc2cc(c3O[C@@H]2O[C@H](CO)[C@@H](O)[C@H](O)[C@H]2O[C@H]2C[C@](C)(N)C(O)[C@H](C)O2)Oc2ccc(cc2Cl)[C@H]1O (some centres not stated) | 5
39 | CCCCc1nc(C=O)c(Cl)[nH]1 | 5
40 | CC1(C)O[C@@H]2C[C@H]3[C@@H]4CCC5=CC(=O)CC[C@]5(C)[C@@]4(F)[C@@H](O)C[C@]3(C)[C@]2(C(=O)CCl)O1 | 5
41 | CCCCCCc1ccc(OP(=O)(Oc2ccccc2)Oc2ccccc2)cc1 | 5
42 | O=CC1=C(C(Cl)(Cl)Cl)C(Cl)(Cl)C(O)C1(Cl)Cl (configuration not stated) | 4
43 | O=c1ccc2cccnc2n1-c1cccc(C(F)(F)F)c1 | 3
44 | CC1CCC(C(C)C)C(OC(=O)C2OC(O)CS2)C1 (configuration not stated) | 5
45 | CNS(=O)(=O)Cc1ccc2[nH]cc(CCN(C)C)c2c1 | 5
46 | CCCN(CCC)c1c([N+](=O)[O-])cc(S(C)(=O)=O)cc1[N+](=O)[O-] | 5
47 | CC(=O)OC1C(N2CCCC2)CC2C3CCC4CC(O)C(N5CCOCC5)CC4(C)C3CCC21C (configuration not stated) | 5
48 | O=C(O)CNC(c1ccccc1)c1ccc(F)cc1 (configuration not stated) | 4

Row | Compound | GHS category
49 | CON(C)C(=O)Nc1cc(C(C)(C)C)ns1 | 4
50 | CC1Oc2cc(C(=O)C=Cc3ccc(O)cc3)ccc2N(C)C1=O (configuration not stated) | 5
51 | CCOC(=O)COc1ccc2c(=O)cc(-c3ccccc3)oc2c1 | 5
52 | CCN(CC)CCOC(=O)c1ccc(NC(=O)C(C)(C)Oc2ccccc2Cl)cc1 | 5
53 | CN(CC(=O)O)N=O | 5
54 | CCOC(=O)c1ccc(NC(=O)C=C(C)C=CC=C(C)C=CC2=C(C)CCCC2(C)C)cc1 | 5
55 | CCCc1c(Cc2ccc(-c3sccc3-c3nn[nH]n3)cc2)c(=O)nc2nc[nH]n12 | 4
56 | CC(C)OC(=O)CCC(=O)OC(C)C | 5
57 | CO/N=C(/C1=NOCCO1)c1ccccc1Oc1ncnc(Oc2ccccc2Cl)c1F | 5
58 | CN(CCNCc1cc(C(C)(C)C)cc(Br)c1O)CCNC(=O)c1nc(Cl)c(N)nc1N | 4
59 | CC(O)COC(=O)c1c(Br)c(Br)c(Br)c(Br)c1C(=O)OCCOCCO (configuration not stated) | 5
60 | CCOC(=O)c1ocnc1C | 5
61 | CC(=O)CSc1nnnn1C | 4
62 | CCCNC(=O)c1sc(-c2ccc(OC)c(OC)c2)nc1C | 5
63 | O=C1NC(=O)c2ccc3c4ccc5c6c(ccc(c7ccc1c2c73)c64)C(=O)NC5=O | 5
64 | O=[N+]([O-])c1cc2c(Nc3ccc(F)c(Cl)c3)ncnc2cc1O[C@H]1CCOC1 | 5
65 | C[N+](C)(C)CC(=O)[O-] | 5
66 | O=C(O)CCCCCCCCCCCCCCCCC(=O)O | 5
67 | C=C(C)C1CCC(C)C(O)C1 (configuration not stated) | 5
68 | COc1cc(C#N)cc(OC)c1O | 5
69 | CCOC(=O)CCC(C)=O | 5
70 | CCOc1c(OC)cccc1-c1nc(=O)c2cc(C(=O)O)ccc2[nH]1 | 4
71 | CNc1ccc(C(C)=O)cc1O | 5
72 | Cc1cc(NC(=O)NC(=O)c2c(F)cccc2F)nc(C)c1-c1ccc(Cl)cc1 | 5

Row | Compound | GHS category
73 | CCCCCCCCCCCCOC(=O)C=CC(=O)OCCCCCCCCCCCC | 5
74 | c1ccc2oc(-c3ccc(-c4nc5ccccc5o4)s3)nc2c1 | 5
75 | COc1ccc2cc([C@H](C)C(=O)OCCN3CCN(CCOC(=O)[C@@H](C)c4ccc5cc(OC)ccc5c4)CC3)ccc2c1 | 5
76 | CSC(C)=NOC(=O)N(C)SN(C(C)(C)C)P1(=S)OCC(C)(C)CO1 | 5
77 | CC(=O)c1ccc2c(c1)oc(=O)n2C | 5
78 | CCCCCNCC(N)=O | 5
79 | CC(C)CCCCCCCCCCO | 5
80 | CO[C@@]1(NC(=O)CSC[C@@H](N)C(=O)O)C(=O)N2C(C(=O)O)=C(CSc3nnnn3C)CS[C@@H]21 | 5
81 | CC(O)CCCCO (configuration not stated) | 5
82 | COc1cccc(OC)c1C(=O)O | 4
83 | CCOc1ccccc1NC(=O)C(=O)Nc1ccccc1CC | 5
84 | CCCN(CCC)C(=O)C(CCC(=O)OCCOCCOC(=O)Cc1c(C)n(C(=O)c2ccc(Cl)cc2)c2ccc(OC)cc12)NC(=O)c1ccccc1 (configuration not stated) | 4
85 | Nc1nc(-c2ccc3ccccc3c2)cs1 | 5
86 | C=CCOc1cc(Cl)ccc1C(=O)NCCN(CC)CC | 5
87 | CCCCCCCCCCCCCCCNP1(=S)OCc2cc([N+](=O)[O-])ccc2O1 (configuration not stated) | 3
88 | Clc1cc(Cl)c(OCC#CI)cc1Cl | 5
89 | C=C(C)C(=O)OCC(CC)CCCC (configuration not stated) | 5
90 | CNS(=O)(=O)c1ccccc1-c1nnc(N)s1 | 5
91 | C[SiH]1O[SiH](C)O[SiH](C)O[SiH](C)O[SiH](C)O1 (configuration not stated) | 5
92 | CCCC(C)O (configuration not stated) | 5
93 | CC(C)OC(=O)c1cc(C(=O)OC(C)C)cc([N+](=O)[O-])c1 | 5
94 | Cc1ccc(Nc2ccc(Nc3ccc(C)cc3S(=O)(=O)O)c3c2C(=O)c2c(O)ccc(O)c2C3=O)c(S(=O)(=O)O)c1 | 5
95 | CC(=O)CCCC(C)CCC=C(C)C (configuration not stated) | 5
96 | O=C=Nc1cc(Cl)cc(Cl)c1 | 5

Row | Compound | GHS category
97 | CC(C)(C)[C@H]1CC[C@H](O)CC1 | 5
98 | FC(F)(Cl)Cl | 4
99 | CC(=O)Nc1ccc2cc(S(=O)(=O)O)c(N=Nc3ccc(S(=O)(=O)CCOS(=O)(=O)O)cc3)c(O)c2c1 | 5
100 | O=C1OCC[C@@H]1O | 5
101 | COc1ccc2c(c1)CCN(c1ccccc1)C2c1ccc(F)cc1 (configuration not stated) | 4
102 | CCOC(=O)C1=C(COCCN2C(=O)c3ccccc3C2=O)NC(C)=C(C(=O)OC)C1c1ccccc1Cl (configuration not stated) | 5
103 | Fc1ccc(Oc2ccnc3cc(Cl)cc(Cl)c23)cc1 | 5
104 | CC12CCC(=O)C=C1CCC1C3CCC4(CCC(=O)O4)C3CCC12C (configuration not stated) | 5
105 | Cc1c(C)c2c(c(C)c1O)CCC(C)(COc1ccc(CC3SC(=O)NC3=O)cc1)O2 (configuration not stated) | 5
106 | CCCCOC(=O)c1ccc(C(=O)OCCCC)cc1 | 5
107 | C=CC(C)C(=O)OCC (configuration not stated) | 5
108 | CCN(C(=O)CCCSc1nnnn1C)c1ccccc1 | 4
109 | COc1cc(C(=O)OCCOCCN2CCN(C(c3ccccc3)c3ccc(Cl)cc3)CC2)cc(OC)c1OC (configuration not stated) | 5
110 | CCOC(=O)C(=O)Nc1nc(-c2ccc(OC)cc2)cs1 | 5
111 | CCCNC(=O)c1cnc2c(C)cccn2c1=O | 3
112 | c1cc2c(c(OCCN3CCCCC3)c1)OCCO2 | 5
113 | COC(=O)c1ccc(C#N)cc1[N+](=O)[O-] | 5
114 | COC(=O)c1ccc(C(=O)OC)c([N+](=O)[O-])c1 | 5
115 | O=P(Oc1ccccc1)(Oc1ccccc1)Oc1ccccc1-c1ccccc1 | 5
116 | Cc1ccccc1OP(Oc1ccccc1C)Oc1ccccc1C | 4
117 | COCOC1CCCCCCCCCCC1 | 5
